Reference: patent US20230058623A1, “NOVEL HETEROARYL-TRIAZOLE COMPOUNDS AS PESTICIDES” (Bayer Aktiengesellschaft, priority 2019, published 2023)

Key:
Type in all cases: in vivo
[1] = tested on: adult unfed cat fleas (Ctenocephalides felis); assay: Ctenocephalides felis oral test; details: 48 h, read-out: activity (mortality)
Outline: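 About 20 adult unfed cat fleas fed through parafilm on citrated cattle blood containing compound (from a DMSO concentrate). Blood held at 37° C, fleas at room temperature. Mortality in % scored after 2 days.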

[2] = tested on: larvae of the southern green stink bug (Nezara viridula); assay: Nezara viridula spray test; details: 96 h, application rate 100 g/ha, after 4 days, barley plants
Outline: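 Barley plants sprayed with the active compound in emulsifier-containing water, then infested with stink bug larvae. Mortality scored in % after 4 days, with 100% meaning all insects killed.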

[3] = tested on: green peach aphid (Myzus persicae); assay: Myzus persicae oral test; details: 120 h, read-out: activity (mortality)
Outline: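 Five-day oral feeding assay measuring percent mortality of a mixed aphid population that draws compound-containing sugared IPL41 medium through sealing parafilm; the test preparation derives from 1 part compound per 100 parts acetone, diluted with water.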

[4] = tested on: adult brown dog ticks (Rhipicephalus sanguineus); assay: Rhipicephalus sanguineus in-vitro contact test, adult brown dog ticks; details: application rate 5 μg/cm^2 (=500 g/ha), after 48 hours, read-out: activity (efficacy: ticks dead or moribund)
Outline: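 Glass tubes are coated with compound dissolved in acetone, a 900 ppm solution yielding 5 μg/cm^2 on the inner surface. Adult ticks (5-10 per tube) are kept on the dry film at room temperature for 48 h, then those unable to escape 45-50° C heat are counted as dead or moribund.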

[5] = tested on: fall armyworm larvae (Spodoptera frugiperda); assay: Spodoptera frugiperda spray test; details: 168 h, application rate 100 g/ha, after 7 days, maize leaf sections
Outline: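 Leaf-spray assay on maize: sections treated with active ingredient at the desired concentration in emulsifier-containing water (1000 ppm) and, once dry, exposed to armyworm caterpillars. Kill rate is expressed in percent after seven days.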

[6] = tested on: adult engorged female ticks (Rhipicephalus microplus); assay: Rhipicephalus (Boophilus) microplus injection test; details: 168 h, application rate 4 μg/tick, egg deposition after 7 days, read-out: activity (efficacy: infertile eggs)
Outline: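 Compound in DMSO (10 mg per 0.5 mL, then diluted with DMSO to test concentration); 1 μL injected into the abdomen of each of five engorged females, then held in a climate chamber. Fertile egg deposition checked at 7 days; efficacy 100% = all eggs infertile, 0% = all fertile.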

[7] = tested on: Rhipicephalus (Boophilus) microplus larvae (strain Parkhurst, resistant against synthetic pyrethroids); assay: Rhipicephalus (Boophilus) microplus in-vitro contact test, larval cattle tick; details: after 48 hours, read-out: activity (efficacy: larvae dead or moribund); for pest or weed control at 1 µg/cm2, 100 g/ha: application rate 1 μg/cm^2 (=100 g/ha); for pest or weed control at 5 µg/cm2, 500 g/ha: application rate 5 μg/cm^2 (=500 g/ha)
Outline: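 Pyrethroid-resistant Parkhurst larvae, 20–50 per tube, were kept 48 h at 27 °C and 85% relative humidity in glass tubes whose inner walls carried a dried acetone film of compound (900 ppm giving 5 μg/cm^2). Dead or moribund larvae, judged by loss of negative geotactic behavior, set percent efficacy.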

[8] = tested on: larvae of the banded cucumber beetle (Diabrotica balteata); assay: Diabrotica balteata spray test; details: 168 h, application rate 100 g/ha (=32 μg/well), after 7 days, wheat seeds, read-out: activity (efficacy: seedlings grown)
Outline: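 Efficacy (%) read 7 days after infesting treated seedlings with 10-20 banded cucumber beetle larvae, 100% meaning growth as in uninfected untreated control and 0% no growth. Test solutions in water containing 1000 ppm emulsifier were sprayed onto wheat seeds germinated for 1 day on agar.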

C[C@@H]1CN(C(=O)c2ccc(-n3ncnc3[C@H](C)NC(=O)c3cc(C(F)(F)F)cc(C(F)(F)F)c3)nc2)C[C@@H](C)O1 [Example I-46]
mortality at 100 ppm [1]: 100% | mortality at 100 g/ha [2]: 100% | mortality at 4 ppm [3]: 100% | pest or weed control at 5 µg/cm2, 500 g/ha [4]: 100% | mortality at 100 g/ha [5]: 100% | pest or weed control at 0.004 mg [6]: 100% | pest or weed control at 1 µg/cm2, 100 g/ha [7]: 100% | pest or weed control at 5 µg/cm2, 500 g/ha [7]: 100% | pest or weed control at 32 µg/disc, 100 g/ha [8]: 100%

Cc1nc([C@H](C)NC(=O)c2cc(C(F)(F)F)cc(C(F)(F)F)c2)n(-c2ccc(C(=O)N3C[C@@H](C)O[C@@H](C)C3)cn2)n1 [Example I-45]
mortality at 100 ppm [1]: 100% | mortality at 100 g/ha [2]: 100% | mortality at 4 ppm [3]: 100% | pest or weed control at 5 µg/cm2, 500 g/ha [4]: 100% | mortality at 100 g/ha [5]: 100% | pest or weed control at 0.004 mg [6]: 100% | pest or weed control at 1 µg/cm2, 100 g/ha [7]: 100% | pest or weed control at 5 µg/cm2, 500 g/ha [7]: 100% | pest or weed control at 32 µg/disc, 100 g/ha [8]: 100%

Cc1nc([C@H](C)NC(=O)c2cc(Cl)cc(C(F)(F)F)c2)n(-c2ccc(C(=O)N3CC(C)OC(C)C3)cn2)n1 (stereo partly drawn) [Example I-29]
mortality at 100 ppm [1]: 100% | mortality at 100 g/ha [2]: 90% | mortality at 4 ppm [3]: 100% | pest or weed control at 5 µg/cm2, 500 g/ha [4]: 100% | mortality at 100 g/ha [5]: 83% | pest or weed control at 0.004 mg [6]: 100% | pest or weed control at 1 µg/cm2, 100 g/ha [7]: 100% | pest or weed control at 5 µg/cm2, 500 g/ha [7]: 100% | pest or weed control at 32 µg/disc, 100 g/ha [8]: 100%
